# Laboratory results reported in paper PMC9511493, “2-(Fluoromethoxy)-4′-(S-methanesulfonimidoyl)-1,1′-biphenyl (UCM-1306), an Orally Bioavailable Positive Allosteric Modulator of the Human Dopamine D1 Receptor for Parkinson’s Disease” (Journal of Medicinal Chemistry, 2022).
# Tests used:
# [1] = biological target: T1, mouse D1R (Mus musculus, UniProt Q61616); experiment: potentiator-mode cAMP assay in mouse CAD neuroblastoma cell line; format: cell-based; details: mouse CAD neuroblastoma cells
# T1 construct: human SK-N-MC and mouse CAD neuroblastoma cell lines; endogenous in cells; host or cells: mouse CAD neuroblastoma cell line
# Method: In order to ascertain if this allosteric potentiation was due to a modulation on DA affinity, radioligand binding assays in the presence of DA IC50 (4 μM) were carried out.
# Compound 26 was tested in the potentiator-mode cAMP assay at different fixed concentrations (1, 5, and 10 μM). […] Therefore, it should have negligible direct activating effects on the human D1R in the absence of the endogenous ligand.
# Figure 3 (A) Concentration–response curves in human D1R for cAMP production of DA alone (black) and in the presence of different concentrations of compound 26. (B) Concentration–response curves in human D1R of DA (black), 10 μM 26 for 10 min (red), and 10 μM 26 for 10 min then washing with assay buffer (blue). (C) Concentration–response curves in mouse D1R of DA alone (black) and in the presence of 10 μM 26 (red). (D) Concentration–response curve in human D1R of compound 26 in the presence of DA EC70 concentration. (E) Concentration–response curves in human D1R of DA (black) and compound 26 (red). (F) Concentration–response curves in human D1R of DA (red), after preincubation for 1 h with 10 μM DA (black), with 10 μM 26 (green), and with both 10 μM DA and 10 μM 26 (blue).
# [2] = biological target: T2, human D3R (Homo sapiens, UniProt P35462); experiment: PatHunter beta-arrestin assay at human D3R; format: cell-based; details: 10 μM compound
# T2 construct: host or cells: cells supplied with the PatHunter Beta-arrestin eXpress GPCR assay kit
# Method: (§1) Functional studies at both human D3 and D4 receptors were carried out in human D3 and D4 receptors, using a PatHunter Beta-arrestin eXpress GPCR assay kit from DiscoverX. Briefly, cells were plated and maintained for 48 h at 37 °C in a 5% CO2 atmosphere in cell plating reagent provided in the kit. After this time, test compounds were added to the cells and incubated for 30 min at 37 °C. Dopamine was added to the cells and incubated for an additional 90 min at 37 °C. Cells were then treated with the working detection solution provided with the kit for 1 h and beta-arrestin translocation was measured by luminescence detection (integration time = 500 ms) in a Tecan M1000 Genius Pro reader. Data were normalized to dopamine maximum effect and fitted to a 4-parameter logistic equation using Prism v2.1 software (GraphPad Inc).
# [3] = biological target: T3, human D4R (Homo sapiens, UniProt P21917); experiment: PatHunter beta-arrestin assay at human D4R; format: cell-based; details: 10 μM compound
# T3 construct: host or cells: cells supplied with the PatHunter Beta-arrestin eXpress GPCR assay kit
# T3 sequence (P21917 1-419): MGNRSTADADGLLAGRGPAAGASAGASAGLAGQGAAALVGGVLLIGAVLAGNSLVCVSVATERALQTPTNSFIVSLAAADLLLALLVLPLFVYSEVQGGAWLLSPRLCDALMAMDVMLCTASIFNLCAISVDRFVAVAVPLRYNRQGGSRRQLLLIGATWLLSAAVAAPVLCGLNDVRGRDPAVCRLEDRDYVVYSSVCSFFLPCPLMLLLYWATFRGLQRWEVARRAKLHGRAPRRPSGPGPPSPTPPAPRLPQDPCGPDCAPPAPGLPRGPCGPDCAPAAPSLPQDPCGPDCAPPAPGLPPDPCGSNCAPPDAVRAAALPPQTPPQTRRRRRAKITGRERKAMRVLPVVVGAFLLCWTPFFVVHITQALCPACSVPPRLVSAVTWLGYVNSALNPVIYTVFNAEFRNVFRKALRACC
# Method: as §1
# [4] = solubility by nephelometry; format: physicochemical; details: PBS buffer with 1% DMSO; maximum solubility by nephelometry
# Method: Prior to use, the pre-coated PAMPA plate system was warmed to rt for 30 min and 300 μL of 200 μM solution of tested compound in 2% DMSO in PBS were added to the wells in the receiver (donor) plate.
# Then, 200 μL of PBS were added to the wells in the filter (acceptor) plate. The filter plate was placed on the receiver plate by slowly lowering the pre-coated PAMPA plate until it sits on the receiver plate. The assembly was incubated at rt for 5 h, and then buffer samples were collected carefully from each plate. […]
# CD(t) = compound concentration (μM) in donor well at time t, and Ceq = […]
# Solubility. […] The solutions were i ncubated for 2 h at 37 °C and read in a NEPHELOstar Plus instrument (BMG LABTECH). […]
# Fluorescence per well was measured using a fluorescence plate reader (Tecan Infinite M1000 pro) and percentage of inhibition was calculated. hERG ion channel inhibition. […] Cell s were maintained at 37 °C in a 5% CO2 atmosphere for 24 h and at 30 °C in a 5% CO 2 atmosphere for 48 h. hERG activity was measured by using the FluxorTM Potassium Ion Chanel Assay Kit (Thermo Fisher F10016). […] After this time, 5 µL of stimulus buffer was added to each well and fluorescence was read (λ ex = 490 nm, λem = 525 nm) every second after the establishment of a baseline line using an imaging plate reader system (FDSS7000EX, Hamamatsu®). […]
# T1 sequence (Q61616 whole entry): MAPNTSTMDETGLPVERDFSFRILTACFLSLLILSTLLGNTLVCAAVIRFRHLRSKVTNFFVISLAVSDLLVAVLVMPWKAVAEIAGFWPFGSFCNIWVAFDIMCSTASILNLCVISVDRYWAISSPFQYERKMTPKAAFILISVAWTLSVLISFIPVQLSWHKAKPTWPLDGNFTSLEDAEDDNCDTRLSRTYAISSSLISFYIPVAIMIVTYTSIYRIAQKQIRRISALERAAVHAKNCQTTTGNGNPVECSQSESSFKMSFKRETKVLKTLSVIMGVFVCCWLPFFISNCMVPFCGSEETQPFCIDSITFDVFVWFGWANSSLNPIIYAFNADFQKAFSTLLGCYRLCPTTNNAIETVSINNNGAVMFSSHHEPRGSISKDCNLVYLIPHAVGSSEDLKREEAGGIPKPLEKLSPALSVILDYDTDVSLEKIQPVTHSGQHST
# T2 sequence (P35462 whole entry): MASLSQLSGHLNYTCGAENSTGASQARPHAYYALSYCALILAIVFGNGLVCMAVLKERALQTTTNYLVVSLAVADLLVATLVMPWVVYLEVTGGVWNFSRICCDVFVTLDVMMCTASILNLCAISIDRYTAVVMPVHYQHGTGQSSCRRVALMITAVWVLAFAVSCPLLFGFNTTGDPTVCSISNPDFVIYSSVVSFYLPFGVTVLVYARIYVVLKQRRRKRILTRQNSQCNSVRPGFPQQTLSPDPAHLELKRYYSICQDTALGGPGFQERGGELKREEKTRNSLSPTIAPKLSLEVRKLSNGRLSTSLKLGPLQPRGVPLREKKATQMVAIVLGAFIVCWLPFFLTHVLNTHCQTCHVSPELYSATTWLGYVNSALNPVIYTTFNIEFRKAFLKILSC
SMILES,potentiation of DA effect in mouse D1R [1],enhancement of DA Emax at human D3 receptor [2],enhancement of DA Emax at human D4 receptor [3],solubility at 2 h [4] [µM]
"O=Cc1ccc(-c2ccccc2OCF)cc1 [Compound 3, 2′-(Fluoromethoxy)[1,1′-biphenyl]-4-carbaldehyde]",concentration-dependent potentiation of DA effect,did not enhance DA Emax,did not enhance DA Emax,15
"CS(=N)(=O)c1ccc(-c2ccccc2OCF)cc1 (centres unmarked) [Compound 26, 2-(Fluoromethoxy)-4′-(S-methanesulfonimidoyl)-1,1′-biphenyl]",PAM behavior was also observed,subtype selectivity,subtype selectivity,50
